Assay results reported in ChEMBL document CHEMBL1201862, “PubChem BioAssay data set” (2004).
Calls of active or inactive are those of the source.

Tests used:
[1] = SAR analysis of small molecule activators of Apaf-1 using a LZ-Caspase-9/Caspase-3 Fluorescent Selectivity assay - Set 2.; type: functional; conditions: read-out: EC50_Mean
[2] = target: T1, Apoptotic protease-activating factor 1 (Homo sapiens, UniProt O14727); assay: SAR analysis of small molecule Activators of Apaf-1 in a Fluorescent assay - set 2.; type: functional; conditions: read-out: EC50_Mean
T1 sequence (O14727 whole entry): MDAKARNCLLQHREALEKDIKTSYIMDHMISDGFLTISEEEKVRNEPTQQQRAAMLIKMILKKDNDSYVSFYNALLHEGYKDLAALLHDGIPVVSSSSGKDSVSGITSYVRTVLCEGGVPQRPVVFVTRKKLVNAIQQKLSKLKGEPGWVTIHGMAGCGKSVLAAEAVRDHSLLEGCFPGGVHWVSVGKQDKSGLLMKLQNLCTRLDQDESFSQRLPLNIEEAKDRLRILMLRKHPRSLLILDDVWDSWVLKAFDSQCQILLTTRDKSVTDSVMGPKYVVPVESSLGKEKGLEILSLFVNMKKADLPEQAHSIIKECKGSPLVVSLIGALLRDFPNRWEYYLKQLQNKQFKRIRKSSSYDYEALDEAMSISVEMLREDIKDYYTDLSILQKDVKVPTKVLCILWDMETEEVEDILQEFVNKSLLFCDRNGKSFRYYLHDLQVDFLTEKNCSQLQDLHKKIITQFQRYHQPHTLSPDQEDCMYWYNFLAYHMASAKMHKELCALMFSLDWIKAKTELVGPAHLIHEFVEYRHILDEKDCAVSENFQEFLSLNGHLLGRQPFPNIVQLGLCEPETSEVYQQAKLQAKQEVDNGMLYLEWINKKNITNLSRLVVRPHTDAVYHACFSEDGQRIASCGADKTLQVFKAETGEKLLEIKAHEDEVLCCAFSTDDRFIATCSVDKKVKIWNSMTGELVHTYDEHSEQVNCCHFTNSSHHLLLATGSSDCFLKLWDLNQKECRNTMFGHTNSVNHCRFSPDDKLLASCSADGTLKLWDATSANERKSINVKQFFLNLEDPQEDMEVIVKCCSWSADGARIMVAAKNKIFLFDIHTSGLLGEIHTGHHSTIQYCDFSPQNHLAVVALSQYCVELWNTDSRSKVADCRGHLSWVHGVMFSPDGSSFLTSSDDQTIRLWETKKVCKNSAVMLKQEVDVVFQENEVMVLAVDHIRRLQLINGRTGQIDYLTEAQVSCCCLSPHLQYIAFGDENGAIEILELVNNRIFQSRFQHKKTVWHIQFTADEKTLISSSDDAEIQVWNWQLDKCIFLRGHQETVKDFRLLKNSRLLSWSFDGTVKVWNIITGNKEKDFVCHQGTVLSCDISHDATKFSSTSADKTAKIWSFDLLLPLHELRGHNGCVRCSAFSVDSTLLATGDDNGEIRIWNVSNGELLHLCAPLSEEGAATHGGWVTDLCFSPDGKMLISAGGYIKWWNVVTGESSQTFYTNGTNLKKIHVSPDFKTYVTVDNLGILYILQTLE

[3] = target: Melanin-concentrating hormone receptor 1 (Homo sapiens, UniProt Q99705); assay: Late-stage fluorescence-based counterscreen for antagonists of the G-protein coupled receptor 7 (GPR7): cell-based dose response assay to identify antagonists of the melanin-concentrating hormone receptor 1 (MCHR1) Set 6.; type: functional
[4] = target: T2, Neuropeptides B/W receptor type 1 (Homo sapiens, UniProt P48145); assay: GPR7 antagonist potency, late-stage follow-up, cell-based, fluorescence, dose response, set 6 (AID 588583); type: functional
T2 sequence (P48145 whole entry): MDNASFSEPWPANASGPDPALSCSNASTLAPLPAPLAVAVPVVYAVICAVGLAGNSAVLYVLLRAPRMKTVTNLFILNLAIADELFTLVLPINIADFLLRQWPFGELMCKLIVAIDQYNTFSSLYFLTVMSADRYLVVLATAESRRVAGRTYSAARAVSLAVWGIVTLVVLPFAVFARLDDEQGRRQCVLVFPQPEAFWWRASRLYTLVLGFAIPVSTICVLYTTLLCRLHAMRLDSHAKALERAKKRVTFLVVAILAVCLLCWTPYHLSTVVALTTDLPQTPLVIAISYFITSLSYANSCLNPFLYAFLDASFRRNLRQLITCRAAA

[5] = tested on: Streptococcus sp. 'group A'; assay: growth inhibition of control SK(-) GAS strain, dose response, counter-screen for streptokinase expression inhibitor project, luminescence, kanamycin, BacTiterGlo, confirmation (AID 1900); type: functional, organism-based
[6] = target: T3, Streptokinase A (Streptococcus pyogenes serotype M1, UniProt P10520); assay: S. pyogenes streptokinase expression inhibitors, potency, dose response, plasminogen activation absorbance, OD405 (AID 1914); type: functional, Streptococcus pyogenes M1 GAS;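 also: secreted streptokinase activity via plasminogen activation per viability signal from cell pellet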
T3 sequence (P10520 whole entry): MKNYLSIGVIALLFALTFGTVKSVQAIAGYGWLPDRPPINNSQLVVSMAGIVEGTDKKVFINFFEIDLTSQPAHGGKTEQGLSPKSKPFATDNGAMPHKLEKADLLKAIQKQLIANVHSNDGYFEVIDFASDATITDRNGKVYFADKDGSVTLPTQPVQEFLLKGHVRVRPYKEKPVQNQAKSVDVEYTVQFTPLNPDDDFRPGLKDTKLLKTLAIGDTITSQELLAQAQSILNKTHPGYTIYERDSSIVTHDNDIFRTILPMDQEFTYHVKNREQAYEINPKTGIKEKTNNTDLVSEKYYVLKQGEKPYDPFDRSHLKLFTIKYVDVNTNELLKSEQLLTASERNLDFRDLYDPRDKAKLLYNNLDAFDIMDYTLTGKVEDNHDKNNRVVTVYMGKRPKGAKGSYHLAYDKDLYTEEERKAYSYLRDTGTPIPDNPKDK

[7] = tested on: Streptococcus; assay: Group A Streptococcus viability loss, dose response, counter-screen for streptokinase expression inhibitor project, luminescence, BacTiterGlo (AID 1915); type: functional, organism-based;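 also: potency for reduction of bacterial viability or growth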
[8] = tested on: INS1; assay: beta cell apoptosis inhibitors, cytokine rescue, dose response, luminescence, retest (AID 449756); type: functional, cell-based; conditions: Rattus norvegicus;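 also: cell death triggered by IL-1 beta plus TNF-alpha plus IFN-gamma mixture; protective hits raise ATP signal compared with cytokine alone wells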
[9] = Vero cell cytotoxicity, dose response, cytotoxicity control for M. tuberculosis growth inhibitor project, Vero cells, purified and synthesized compounds, set 5 (AID 504909); type: functional; conditions: Mycobacterium tuberculosis
[10] = HepG2 cell cytotoxicity, cytotoxicity control, set 4 (AID 504910); type: functional; conditions: Mycobacterium tuberculosis
[11] = THP-1 cell cytotoxicity, cytotoxicity control, set 4 (AID 504911); type: functional; conditions: Mycobacterium tuberculosis

Sequence of Melanin-concentrating hormone receptor 1 (Q99705 whole entry): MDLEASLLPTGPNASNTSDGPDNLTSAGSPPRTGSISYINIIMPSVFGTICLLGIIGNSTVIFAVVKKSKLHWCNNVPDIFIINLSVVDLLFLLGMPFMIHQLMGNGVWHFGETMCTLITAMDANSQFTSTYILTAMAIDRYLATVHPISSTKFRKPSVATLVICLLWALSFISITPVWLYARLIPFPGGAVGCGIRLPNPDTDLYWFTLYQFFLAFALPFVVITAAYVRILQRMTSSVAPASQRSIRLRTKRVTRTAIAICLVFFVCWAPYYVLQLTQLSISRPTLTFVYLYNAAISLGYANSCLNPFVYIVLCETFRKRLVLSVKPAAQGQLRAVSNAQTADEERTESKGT

O=C(O)C1(Cn2cccn2)CC1
inactive: EC50 [1] > 100 µM | EC50 [2] > 100 µM

NC(=O)C(c1ccccc1)c1c(Cl)cnn(Cc2cccc3ccccc23)c1=O (stereo unspecified)
inactive: IC50 [3] > 20 µM | IC50 [4] > 20 µM

CC(C)/N=c1\cc2n(-c3ccc(Cl)cc3)c3ccccc3nc-2cc1Nc1ccc(Cl)cc1 [CLOFAZIMINE]
active: EC50 [5] 1.86 µM | EC50 [6] 2.28 µM | EC50 [7] 36.9 µM | AC50 [8] 2.06 µM | CC50 [9] 10.2 µM | CC50 [10] 4.7 µM | CC50 [11] 2.2 µM
